Conditions: Liquid, Buoyancy - hydrostatic balance with magnetic suspension - one sinker

Cc1ccc(Cl)cc1Cl [1,3-dichloro-4-methylbenzene]
Conditions | mass density [kg/m3]
373.15 K, 4135.4 kPa | 1169.29
373.15 K, 5954.6 kPa | 1171.27
373.15 K, 7981.3 kPa | 1173.43
373.15 K, 10128 kPa | 1175.67
373.15 K, 11936 kPa | 1177.54
373.15 K, 14002 kPa | 1179.62
373.15 K, 15987 kPa | 1181.6
373.15 K, 18116 kPa | 1183.68
373.15 K, 19990 kPa | 1185.5
373.15 K, 22002 kPa | 1187.4
373.15 K, 23973 kPa | 1189.24
373.15 K, 26011 kPa | 1191.11
373.15 K, 28050 kPa | 1192.96
373.15 K, 29922 kPa | 1194.64
393.15 K, 100.49 kPa | 1143.03
393.15 K, 1179.5 kPa | 1144.4
393.15 K, 1991.5 kPa | 1145.42
393.15 K, 3926.6 kPa | 1147.8
393.15 K, 5963.8 kPa | 1150.27
393.15 K, 7963.7 kPa | 1152.64
393.15 K, 10152 kPa | 1155.17
393.15 K, 12148 kPa | 1157.43
393.15 K, 14137 kPa | 1159.65
393.15 K, 16116 kPa | 1161.81
393.15 K, 17917 kPa | 1163.75
393.15 K, 20141 kPa | 1166.09
393.15 K, 22096 kPa | 1168.12
393.15 K, 24174 kPa | 1170.23
393.15 K, 26160 kPa | 1172.22
393.15 K, 27968 kPa | 1174
393.15 K, 29927 kPa | 1175.92
413.15 K, 100.59 kPa | 1120.92
413.15 K, 1151.6 kPa | 1122.41
413.15 K, 2145.3 kPa | 1123.81
413.15 K, 3981.3 kPa | 1126.35
413.15 K, 6146.6 kPa | 1129.27
413.15 K, 8164.1 kPa | 1131.92
413.15 K, 10060 kPa | 1134.35
413.15 K, 11927 kPa | 1136.7
413.15 K, 14145 kPa | 1139.43
413.15 K, 16150 kPa | 1141.84
413.15 K, 18124 kPa | 1144.17
413.15 K, 20124 kPa | 1146.49
413.15 K, 22139 kPa | 1148.77
413.15 K, 24073 kPa | 1150.92
413.15 K, 26091 kPa | 1153.13
413.15 K, 29979 kPa | 1157.28
433.15 K, 95.11 kPa | 1098.16
433.15 K, 1136.7 kPa | 1099.85
433.15 K, 2147.7 kPa | 1101.45
433.15 K, 3917.8 kPa | 1104.21
433.15 K, 6150.5 kPa | 1107.59
433.15 K, 8148.5 kPa | 1110.53
433.15 K, 10046 kPa | 1113.26
433.15 K, 12142 kPa | 1116.17
433.15 K, 14151 kPa | 1118.91
433.15 K, 16187 kPa | 1121.62
433.15 K, 18165 kPa | 1124.19
433.15 K, 20168 kPa | 1126.73
433.15 K, 22138 kPa | 1129.18
433.15 K, 24093 kPa | 1131.56
433.15 K, 26057 kPa | 1133.91
433.15 K, 28003 kPa | 1136.2
433.15 K, 29939 kPa | 1138.43
453.15 K, 1198.5 kPa | 1076.81
453.15 K, 2151.7 kPa | 1078.53
453.15 K, 4164.4 kPa | 1082.08
453.15 K, 6169.6 kPa | 1085.47
453.15 K, 8024.4 kPa | 1088.53
453.15 K, 10086 kPa | 1091.85
453.15 K, 12119 kPa | 1094.99
453.15 K, 14144 kPa | 1098.05
453.15 K, 16087 kPa | 1100.89
453.15 K, 19984 kPa | 1106.47
453.15 K, 22044 kPa | 1109.28
453.15 K, 24087 kPa | 1112.01
453.15 K, 26125 kPa | 1114.68
453.15 K, 28000 kPa | 1117.08
453.15 K, 29897 kPa | 1119.49
473.15 K, 1132.5 kPa | 1052.66
473.15 K, 2054.3 kPa | 1054.57
473.15 K, 4181.9 kPa | 1058.81
473.15 K, 5970.9 kPa | 1062.27
473.15 K, 8153.5 kPa | 1066.34
473.15 K, 10138 kPa | 1069.91
473.15 K, 12109 kPa | 1073.33
473.15 K, 14125 kPa | 1073.33
473.15 K, 16133 kPa | 1080.01
473.15 K, 18132 kPa | 1083.19
473.15 K, 20147 kPa | 1086.3
473.15 K, 22083 kPa | 1089.22
473.15 K, 24078 kPa | 1092.15
473.15 K, 26043 kPa | 1094.96
473.15 K, 27886 kPa | 1097.55
473.15 K, 29893 kPa | 1100.31

From the NIST ThermoML archive (doi:10.1016/j.jct.2008.02.020)
